Patent US10010538B2, “Use of anthelmintic agents against Dirofilaria immitis” (Intervet Inc., priority 2014, dated 2018)

Tests used:
D. immitis microfilariae = assay: Activity against D. immitis microfilariae (viability after 3 days incubation); assay type: cell-based; details: Dirofilaria immitis, in Canis lupus familiaris, 72 h, read-out: Microfilaricidal activity, half maximal effective concentration (EC50)
L4 larvae of D. immitis = assay: microbe, parasite or virus in culture; assay type: cell-based; details: Dirofilaria immitis, 72 h, read-out: MIC100, lowest dose that results in complete loss of motility

SMILES | EC50 (D. immitis microfilariae) [µM] | MIC (L4 larvae of D. immitis) [µM]
O=C(CO[C@H]1CC[C@H](Nc2ccc([N+](=O)[O-])c(C(F)(F)F)c2)CC1)N1CCC(Oc2ccc(OC(F)(F)F)cc2)CC1 [Example 266] | < 5 | < 10
O=C(CO[C@H]1CC[C@H](Nc2ccc([N+](=O)[O-])c(C(F)(F)F)c2)CC1)N1CCC(Nc2ccc(C(F)(F)F)cc2)CC1 [Example 267] | < 10 | < 10
